Measured values published in patent publication EP4663632A1, “COMPOUNDS USEFUL FOR THE MODULATION OF THE ACTIVITY OF STING” (Sulis Therapeutics ApS, priority 2024, dated 2025).
pEC50, pIC50: −log10 of the molar value. Values joined by “and” are separate entries in the source; they are usually repeats but may differ in a detail not shown here. Equal values may be shown once.

Legend:
[1] = molecular target: C-terminal domain (CTD) of human STING (Homo sapiens, UniProt Q86WV6); assay: STING binding FP assay III; set-up: recombinant human STING protein (155-379); settings: 10 nM STING (FP assay III according to the text); read-out: STING binding FP assay II, IC50
Sequence of C-terminal domain (CTD) of human STING (Q86WV6 155-379): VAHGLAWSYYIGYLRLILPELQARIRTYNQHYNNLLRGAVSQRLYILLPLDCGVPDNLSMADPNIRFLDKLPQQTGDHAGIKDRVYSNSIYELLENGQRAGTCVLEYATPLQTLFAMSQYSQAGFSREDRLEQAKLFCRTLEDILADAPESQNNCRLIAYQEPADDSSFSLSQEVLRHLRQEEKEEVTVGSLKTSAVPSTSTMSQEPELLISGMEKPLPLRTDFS
Procedure, shortened: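 FP competition assay using 10 nM recombinant human STING (155-379) and 4 nM fluorescein-labelled STING ligand in 150 mM NaCl, 50 mM HEPES pH 7.5, 1 mM DTT with Tween-20. Plates were incubated 20 min at room temperature and read at Ex 485/Em 528 nm. IC50 values came from four-parameter fits.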

STING [2] = molecular target: T1, STING (Homo sapiens, UniProt Q86WV6); assay: Western Blot analysis for STING degradation (DC50) in HFF-1 cells; assay type: cell-based; set-up: host or cells: HFF-1 human foreskin fibroblasts; settings: 24h; reference protein vinculin
T1 sequence (Q86WV6 whole entry): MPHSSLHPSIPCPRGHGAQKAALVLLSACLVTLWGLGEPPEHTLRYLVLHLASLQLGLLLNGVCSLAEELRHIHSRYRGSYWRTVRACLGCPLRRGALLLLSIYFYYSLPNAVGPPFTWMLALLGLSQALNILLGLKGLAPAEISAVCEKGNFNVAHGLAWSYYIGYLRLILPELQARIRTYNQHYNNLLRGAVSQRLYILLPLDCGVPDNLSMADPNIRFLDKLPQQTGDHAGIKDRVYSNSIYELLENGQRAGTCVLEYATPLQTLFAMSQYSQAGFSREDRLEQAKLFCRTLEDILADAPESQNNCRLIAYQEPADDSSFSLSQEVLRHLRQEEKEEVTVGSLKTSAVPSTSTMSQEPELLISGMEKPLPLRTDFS
Description: To assess STING degradation in human foreskin fibroblasts HFF-1 cells (ATCC, SCRC-1041) cells were seeded at a density of 60.000 cells/well in 24-well Nunclon Delta surface treated culture plate in DMEM growth medium (supplemented with 10% FBS, 1% Pen-strep). Cells were incubated over-night at 37°C 5% CO2 to allow adhesion. Next day growth medium was renewed and a 5x concentration of test compounds (2.5% DMSO) diluted in growth medium were added to the appropriate well. The final DMSO concentration were 0.5%. Cell culture plates were returned to the incubator for additional 24h.
(§1) For cell lysing for Western Blot analysis cell culture plates were brought to ice, supernatant was removed by aspiration and cells washed 2x in ice-cold DPBS. Cells were lysed in 65 µL of RIPA buffer supplemented with cOmplete ULTRA Tablets protease inhibitor cocktail, PIERCE Phosphatase inhibitor mini tablet, Benzonase and 10mM NaF for 20 min on ice. Lysates were collected, cleared by centrifugation (13000xg for 10 min at 4°C). Samples were either analysed directly or stored at -80°C until analysis.
(§2) For Western Blotting, total protein concentration in each lysate was determined using PIERCE Gold BCA Assay kit according to manufactures protocol. 6 µg of total protein was mixed with 2x Laemmli buffer containing DTT, boiled for 5 min at 95°C, cooled on ice and loaded into each well of a 4-20% Criterion TGX gel. Proteins were separated by electrophoresis, by running for 1h at 150V. After separation proteins were blotted onto a PVDF membrane by semi-dry transfer using Trans-Blot turbo system at pre-defined BioRad MIDI protocol; 25V, 1A (fixed) for 30 min. Membranes were blocked for 1h in 5% skim milk in TBS-T20 on a rocker at room temperature followed by washing and exposure to primary antibodies against human STING 1:1000 (Cell Signalling, #13647) or loading controls Vinculin 1:1000 (Cell Signalling, #13901) or beta-Actin 1:10000 (Sigma, A5441) all diluted in 5% BSA in TBS-T20. Membranes were probed over night at 4°C on a rocker. Membranes were washed 3x in TBS-T20 followed by exposure to secondary HRP-conjugated anti-rabbit antibody or HRP-conjugated anti-mouse antibody diluted 1:10000 in 5% skim milk in TBS-T20 as appropriate. Membranes were incubated for 1h at room temperature on a rocker, then washed 3x in TBS-T20.
(§3) For generating DC50 values, the intensity of individual bands was measured using imaged and expression levels were calculated as a ratio of STING intensities vs. Reference protein intensities and normalized to DMSO control. The normalized ratios were plotted on a XY curve in GraphPad Prism where DC50 was estimated using a 4-parameter non-linear regression fitting curve.

STING [3] = molecular target: T1, STING; assay: Inhibition of STING-agonist-induced IFN-β release in H596 cells (H596 STING inhibition assay); assay type: cell-based; settings: 24h with compound, then 0.3 µM GSK STING agonist, 6h; ELISA
Description: Cell supernatants were analysed for IFN-β release using DuoSet human IFN-β ELISA (R&D systems, DY-814) following manufactures protocol except using 96-well, half-volume plates from Corning and subsequently use half volume for all steps throughout the protocol. In brief, plates were coated o/n with a 130x dilution of capturing antibody in PBS. Wells were washed 3x with PBS-T20 followed by blocking with 1% BSA diluted in TBS-T20 for 1h. Wells were washed 3x with PBS-T20 and standards (n=2) and samples (n=3) were added to the plate and incubated for 2h at rt. Wells were washed 3x with PBS-T20 and detection antibody diluted 1:60 in 1% BSA in PBS was added to each well and incubated for 2h at rt. Plates were washed 3x with PBS-T20 and Streptavidin-HRP diluted 1:40 in 1% BSA in PBS was added pr well and incubated for 30 min at rt. The wells were washed 4x with PBS-T20 and TMB One Substrate (Promega) was added and incubated for 5-10 min in the dark. When fully developed, 1 mmol/L Sulfuric acid was added to stop the reaction. Signals were measured using BioTek Synergy H1 plate reader at 450nm and 570nm (reference).
Raw data values were quantified based on the standard curve using blank subtracted Δ450nm-570nm values generated using the Gen5 software connected to the plate reader. Concentrations were plotted into GraphPad Prism to calculate EC50 values using a 4-parameter non-linear regression fitting curve, bottom constrains set for >0.
To determine cellular effects of test compounds, we assessed inhibition of STING-agonist-induced IFN-β release in H596 cells (ATCC, HTB-178). Cells were seeded at a density of 25.000 cells/well in 96-well Nunclon Delta surface treated culture plate in RPMI-1640 growth medium (supplemented with 10% FBS, 1% Pen-strep). Cells were incubated over-night at 37°C 5% CO2 to allow adhesion. Next morning growth medium was renewed and a 10x concentration, 3-step dilution series of test compounds diluted in growth medium (5% DMSO) were added to the appropriate well. Final DMSO concentration was 0.5%. Cells were further incubated for 24h followed by incubation with a 10x concentration of GSK STING agonist (CAS number: 2138299-34-8), final concentration was 0.3 µM. Cells culture plates were further incubated, and supernatants were harvested after 6h and immediately stored at -20°C until determination of IFN-β release.
For ELISA and data analysis, the methods described above for HFF-1 cells were applied.

STING [4] = molecular target: T1, STING; assay: Western Blot analysis for STING degradation in H596 cells; assay type: cell-based; settings: 24h; reference protein beta-actin
Description: as §1, §2, §3
To assess STING degradation in H596 cells (ATCC, HTB-178) cells were seeded at a density of 100.000 cells/well in 24-well Nunclon Delta surface treated culture plate in RPMI-1640 growth medium (supplemented with 10% FBS, 1% Pen-strep). Cells were incubated over-night at 37°C 5% CO2 to allow adhesion. Next day growth medium was renewed and a 5x concentration of test compounds (2.5% DMSO) diluted in growth medium were added to the appropriate well. Final DMSO concentration was 0.5%. Cell culture plates were returned to the incubator for additional 24h. Final test compound concentrations were 0.22 µM, 0.67 µM, 2 µM and 6 µM.
For cell lysis, western blotting and data analysis, the methods described above for HFF-1 cells were applied.

STING [5] = molecular target: T2, STING (Mus musculus, UniProt Q3TBT3); assay: IFN-β secretion from mouse RAW264.7 cells treated with diABZI; assay type: cell-based; set-up: endogenous in cells; host or cells: RAW264.7 mouse cells; settings: 1.8 µM diABZI c3 only
T2 sequence (Q3TBT3 1-378): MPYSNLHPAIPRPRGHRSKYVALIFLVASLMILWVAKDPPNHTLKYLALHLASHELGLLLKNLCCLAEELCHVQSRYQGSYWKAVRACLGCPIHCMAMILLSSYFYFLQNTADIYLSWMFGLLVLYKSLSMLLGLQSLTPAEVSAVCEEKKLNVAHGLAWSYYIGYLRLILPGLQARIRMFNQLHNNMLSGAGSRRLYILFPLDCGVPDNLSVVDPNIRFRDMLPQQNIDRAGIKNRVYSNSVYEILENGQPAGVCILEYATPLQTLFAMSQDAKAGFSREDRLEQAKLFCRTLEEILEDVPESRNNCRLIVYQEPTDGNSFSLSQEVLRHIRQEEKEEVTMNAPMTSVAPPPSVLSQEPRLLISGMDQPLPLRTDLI
Description: As expected, RAW264.7 cells treated with 1.8 µM diABZI c3 increased IFN-β secretion, resulting in a media concentration of around 1000 pg/mL. In contrast, cells treated with 1.8 µM diABZI c3 and 0.05 µM Example compounds 14, 16 or 24 reduced this expression to approximately 500 pg/mL.

STING [6] = molecular target: T1, STING; assay: Western Blot analysis of inhibition of STING activation in HFF-1 cells; assay type: cell-based; set-up: host or cells: HFF-1 human foreskin fibroblasts; settings: agonist only (-): 300 nM diABZI c3 or 8 µg/mL cGAMP
Description: To assess whether S1 STING ligands inhibit STING activation, primary human skin fibroblasts (Figure 5) or HFF-1 cells (Figure 6) were treated with various compounds which comprise only an S1 ligand domain and a Linker domain before undergoing Western Blot analysis as described below.
The cells were lysed and analysed on WB. […] The WB membrane was probed for p-STING, STING, p-IRF3, p-TBK1, and Vinculin.

STING [7] = molecular target: T1, STING; assay: Inhibition of STING-agonist-induced IFN-β and CXCL10 release by Compounds A9 and A11; assay type: cell-based; set-up: host or cells: HFF-1 human foreskin fibroblasts
Description: HFF-1 cells were also assessed for inhibition of STING-agonist-induced IFN-β and CXCL10 release in cells treated with Compounds A9 and A11. […] In contrast, pre-treating cells for 1 to 2 hours prior to diABZI c3, simultaneous treatment with A9 and diABZI c3, or pre-treating cells for 15 minutes with diABZI c3 followed by A9 treatment led to a decrease in the IFN media concentration to ~100 U/mL. […] In contrast, cells pre-treated for 1 to 2 hours prior to diABZI c3, simultaneous treatment with A9 and diABZI c3, or pre-treating cells for 15 minutes with diABZI c3 followed by A9 treatment led to a decrease in the CXCL10 media concentration to […] (Figure 9B, unfiled bars).
In contrast, pre-treating cells for 1 to 2 hours prior to diABZI c3, simultaneous treatment with A11 and diABZI c3, or pre-treating cells for 15 minutes with diABZI c3 followed by A11 treatment led to a decrease in the IFN media concentration to -10 - 20 U/mL. […] In contrast, cells pre-treated for 1 to 2 hours prior to diABZI c3, simultaneous treatment with A11 and diABZI c3, or pre-treating cells for 15 minutes with diABZI c3 followed by A11 treatment led to a decrease in the CXCL10 media concentration to -10 - 20 pg/mL (Figure 9B; filled bars).

STING [8] = molecular target: T1, STING; assay: Western Blot analysis of STING phosphorylation in human fibroblast cells (STING agonism); assay type: cell-based; set-up: host or cells: HFF-1 human foreskin fibroblasts; settings: control, 300nM diABZI C3 alone
Description: Human fibroblast were treated with a titration of E22, E9, E14 and E16 (7.2µM-3.6nM) for 24h prior to cell lysis and subsequently total STING, pSTING and Vinculin were assessed by western blot using rabbit anti-STING (1:1000), anti-pSTING (1:1000), anti-Vinculin (1:1000) and 2nd anti-rabbit-HRP (1:10.000) or anti-mouse-HRP (1:7500). Proteins were visualized using ImageQuant800. Control cells included untreated cells and cells treated with 300nM diABZI C3.

SMILES | pIC50 [1] | DC50 (STING [2]) [nM] | pEC50 (STING [3]) | DC50 (STING [4]) [nM] | IFN-β media concentration (STING [5]) | phosphorylation of STING, IRF3 and TBK1 (STING [6]) | CXCL10 media concentration (STING [7]; cells treated with diABZI c3 alone (0.3 µM)) | IFN media concentration (STING [7]; cells treated with only diABZI c3 (0.3 µM), tris(hydrochloride)) | STING phosphorylation (pSTING) (STING [8])
CCn1nc(C)cc1C(=O)N=c1n(C)c2cc(C(N)=O)ccc2n1CCC(CCn1c(=NC(=O)c2cc(C)nn2CC)n(C)c2cc(C(N)=O)ccc21)OCC(=O)NCCOCCOCCOCCOCCC(=O)NCCCCC(=O)N[C@H]1C[C@@H](C(=O)N[C@@H]2CCCc3ccccc32)N(C(=O)[C@@H](NC(=O)[C@H](C)NC)C2CCCCC2)C1 (some centres unmarked) [Example 10] | 8.35 | < 200 | 6.00 to 6.70 | – | – | – | – | – | –
CCn1nc(C)cc1C(=O)N=c1n(C)c2cc(C(N)=O)ccc2n1CCC(CCn1c(=NC(=O)c2cc(C)nn2CC)n(C)c2cc(C(N)=O)ccc21)OCC(=O)NCCOCCOCCOCCOCCC(=O)N1CCN(C(=O)CCC(=O)NCCCCOc2cc(-c3scnc3C)ccc2CNC(=O)[C@@H]2C[C@@H](O)CN2C(=O)[C@@H](NC(=O)C2(F)CC2)C(C)(C)C)CC1 (some centres unmarked) [Example 19] | 8.15 | – | > 6.70 | < 200 | – | – | – | – | –
CCn1nc(C)cc1C(=O)N=c1n(C)c2cc(C(N)=O)ccc2n1CCC(CCn1c(=NC(=O)c2cc(C)nn2CC)n(C)c2cc(C(N)=O)ccc21)OCC(=O)NCCOCCOCCOCCOCCC(=O)N1CCN(C(=O)CCOCCC(=O)NCCCCOc2cc(-c3scnc3C)ccc2CNC(=O)[C@@H]2C[C@@H](O)CN2C(=O)[C@@H](NC(=O)C2(F)CC2)C(C)(C)C)CC1 (some centres unmarked) [Example 20] | 8.57 | – | > 6.70 | < 200 | – | – | – | – | –
CCn1nc(C)cc1C(=O)Nc1nc2cc(C(N)=O)cc(OC)c2n1C/C=C/Cn1c(NC(=O)c2cc(C)nn2CC)nc2cc(C(N)=O)cc(OCCCN3CCOCC3)c21.Cl.Cl.Cl [diABZI c3, (E)-1-(4-(5-carbamoyl-2-(1-ethyl-3-methyl-1H-pyrazole-5-carboxamido)-7-(3-morpholinopropoxy)-1H-benzo[d]imidazol-1-yl)but-2-en-1-yl)-2-(1-ethyl-3-methyl-1H-pyrazole-5-carboxamido)-7-methoxy-1H-benzimidazole-5-carboxamide tris(hydrochloride), reference compound] | – | – | – | – | around 1000 pg/mL | STING was phosphorylated and activated as were the downstream STING effectors IRF3 and TBK1 | ~ 60 pg/mL | ~ 200 U/mL and ~ 100 U/mL | STING was phosphorylated
